# Experimental data reported in patent US10259779B2 (WAYNE STATE UNIVERSITY, priority 2016, dated 2019).
# Assays:
# HDAC1 = HDAC1 (Homo sapiens, UniProt Q13547); test: ELISA-based HDAC activity assay, HDAC1
# HDAC2 = HDAC2 (Homo sapiens, UniProt Q92769); test: ELISA-based HDAC activity assay, HDAC2
# HDAC3 = HDAC3 (Homo sapiens, UniProt O15379); test: ELISA-based HDAC activity assay, HDAC3
# recombinant HDAC8 = biological target: T1, recombinant HDAC8 (Homo sapiens, UniProt Q9BY41); test: Recombinant HDAC8 inhibition (HDAC-Glo); type: biochemical; details: for activity at 0.1 µM: 1.0 × 10^−7 M; for activity at 0.2 µM: 2.0 × 10^−7 M; for activity at […]: 2.5 × 10^−8 M; for activity at 0.05 µM: 5.0 × 10^−8 M; for HDAC8 fold selectivity HDAC1: HDAC8 over HDAC1; for HDAC8 fold selectivity HDAC1 / HDAC8 fold selectivity HDAC2 / HDAC8 fold selectivity HDAC3: calculated from IC50 values; for HDAC8 fold selectivity HDAC2: HDAC8 over HDAC2; for HDAC8 fold selectivity HDAC3: HDAC8 over HDAC3
# T1 construct: purchased BPS Bioscience
# T1 sequence (Q9BY41 1-377): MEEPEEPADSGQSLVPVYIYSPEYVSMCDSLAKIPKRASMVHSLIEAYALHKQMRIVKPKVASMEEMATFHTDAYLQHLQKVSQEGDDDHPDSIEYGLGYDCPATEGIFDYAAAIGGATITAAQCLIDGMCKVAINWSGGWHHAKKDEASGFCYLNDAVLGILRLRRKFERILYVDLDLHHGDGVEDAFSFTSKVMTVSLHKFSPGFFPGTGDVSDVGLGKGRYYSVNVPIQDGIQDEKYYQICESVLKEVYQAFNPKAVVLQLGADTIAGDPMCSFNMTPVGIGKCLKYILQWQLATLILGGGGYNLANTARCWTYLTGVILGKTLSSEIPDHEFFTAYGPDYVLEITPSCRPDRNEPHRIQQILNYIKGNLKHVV
# Procedure: Inhibitory activity with HDAC8 was measured using the following procedure. In a half area 96-well white opaque plate, recombinant HDAC8 (75 ng, BPS Bioscience) was incubated in HDAC-Glo™ buffer (39 μL) with inhibitor in DMSO (1 μL), or DMSO alone (1 μL) as a control, for 15 minutes at room temperature. HDAC-Glo™ reagent (10 μL) was added to each reaction and incubated for 30 min at room temperature. Luminescent signal was measured 30 minutes after adding the substrate reagent using a Geniosplus Fluorimeter (Tecan) at optimal gain. To determine IC50, the luminescent signal was first background corrected with the signal from a background control reaction where no HDAC8 enzyme was added.
# [1] = system: HDAC proteins in HeLa cell lysates; test: Global HDAC inhibition with HeLa cell lysates (HDAC-Glo I/II substrate); type: biochemical; details: for Deacetylase activity (%): Hela Lysate; for IC50: HeLa cell lysates
# Procedure: HDAC activity was measured using the commercially available HDAC-Glo™ I/II substrate (Promega).
# Lysates were prepared according to the reported procedure.^28 HeLa-S3 cells (purchased from Biovest) were lysed in lysis buffer (1×10^9 cells in 10 mL lysis buffer; 50 mM Tris-HCl, pH 8.0, 10% glycerol, 150 mM NaCl, 0.5% Triton X-100, and 1× protease inhibitor cocktail (GenDEPOT)) with rotation at 4° C. for 30 min. Cell debris was removed by centrifugation at 12000 rpm at 4° C. for 30 min. Protein concentration of the supernatant was determined using Bio-Rad protein assay (BioRad, Bradford reagent). Lysates were stored at −80° C.
# To measure global HDAC inhibition, HeLa cell lysates (1 μg total protein) were mixed with HDAC-Glo™ buffer in polystyrene 96-well half area white plate (Corning) to a final volume of 12 μL, followed by addition of inhibitors in DMSO (0.5 μL) and incubation for 15 min at room temperature without rocking. An uninhibited control reaction was also included that contained DMSO (0.5 μL). Finally, deacetylase activity was measured using the HDAC-Glo™ assay kit (Promega) as per the manufacturer's protocol. Specifically, the HDAC-Glo™ substrate (1 mL) and developer ([…]) were first premixed to form the HDAC-Glo™ reagents. Then, to monitor deacetylase activity, HDAC-Glo™ reagent (5 μL) and HDAC-Glo™ buffer (7.5 μL) were added to each well (25 μL total volume) and incubated for 35 min at room temperature without rocking. The deacetylase activity was measured as luminescent signal using a GeniosPlus Fluorimeter (Tecan) at optimal gain. The concentrations of inhibitors reported in the dose-dependent studies (Table 2) are final concentrations after addition of HDAC-Glo™ reagent HDAC-Glo™ buffer.
# [2] = potency (IC50) to HDAC1, 2, and 3, range over HDAC1, 2, and 3
# [3] = read-out: Deacetylase activity (%) HDAC1
# [4] = read-out: Deacetylase activity (%) HDAC2
# [5] = read-out: Deacetylase activity (%) HDAC3
# [6] = read-out: Deacetylase activity (%) HDAC8
# HDAC2, sequence (Q92769 whole entry): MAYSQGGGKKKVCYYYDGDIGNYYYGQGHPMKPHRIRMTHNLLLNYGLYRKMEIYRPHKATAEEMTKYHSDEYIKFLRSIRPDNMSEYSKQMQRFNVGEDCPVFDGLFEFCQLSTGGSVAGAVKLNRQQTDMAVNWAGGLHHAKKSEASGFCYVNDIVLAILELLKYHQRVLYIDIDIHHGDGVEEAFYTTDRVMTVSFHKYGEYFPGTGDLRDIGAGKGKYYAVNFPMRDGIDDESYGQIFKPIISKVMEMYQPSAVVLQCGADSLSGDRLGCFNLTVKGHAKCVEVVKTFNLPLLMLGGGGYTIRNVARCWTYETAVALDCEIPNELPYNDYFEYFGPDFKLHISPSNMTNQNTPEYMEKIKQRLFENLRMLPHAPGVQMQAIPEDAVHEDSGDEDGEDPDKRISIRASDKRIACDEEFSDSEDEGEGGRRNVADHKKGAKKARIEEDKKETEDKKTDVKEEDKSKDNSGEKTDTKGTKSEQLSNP
# HDAC1, sequence (Q13547 whole entry): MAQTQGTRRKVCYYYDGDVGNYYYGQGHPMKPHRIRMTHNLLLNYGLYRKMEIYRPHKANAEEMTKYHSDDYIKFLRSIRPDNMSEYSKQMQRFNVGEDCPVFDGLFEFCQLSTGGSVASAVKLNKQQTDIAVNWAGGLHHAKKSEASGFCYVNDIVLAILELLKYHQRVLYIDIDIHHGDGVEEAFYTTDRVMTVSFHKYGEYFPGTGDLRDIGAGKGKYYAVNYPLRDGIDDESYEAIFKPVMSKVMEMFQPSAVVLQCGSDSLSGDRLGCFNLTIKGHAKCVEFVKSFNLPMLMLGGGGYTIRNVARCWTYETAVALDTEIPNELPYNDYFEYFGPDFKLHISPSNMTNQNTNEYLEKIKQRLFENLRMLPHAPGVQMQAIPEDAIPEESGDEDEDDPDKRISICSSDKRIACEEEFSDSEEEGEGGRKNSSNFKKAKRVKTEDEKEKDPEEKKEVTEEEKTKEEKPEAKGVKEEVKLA
# HDAC3, sequence (O15379 whole entry): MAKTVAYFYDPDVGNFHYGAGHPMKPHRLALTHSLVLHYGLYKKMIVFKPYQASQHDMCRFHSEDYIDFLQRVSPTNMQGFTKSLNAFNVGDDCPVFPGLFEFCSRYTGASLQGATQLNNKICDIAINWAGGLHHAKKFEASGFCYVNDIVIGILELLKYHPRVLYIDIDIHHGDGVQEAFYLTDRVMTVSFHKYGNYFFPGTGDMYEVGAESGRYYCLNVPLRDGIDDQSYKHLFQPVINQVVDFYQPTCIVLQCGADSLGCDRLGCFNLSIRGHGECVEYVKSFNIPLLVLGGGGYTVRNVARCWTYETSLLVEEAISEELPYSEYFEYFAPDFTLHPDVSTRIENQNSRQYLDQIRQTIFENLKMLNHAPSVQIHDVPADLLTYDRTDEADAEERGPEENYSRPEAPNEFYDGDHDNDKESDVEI
# HDAC3, sequence (Q9Y618 whole entry partner): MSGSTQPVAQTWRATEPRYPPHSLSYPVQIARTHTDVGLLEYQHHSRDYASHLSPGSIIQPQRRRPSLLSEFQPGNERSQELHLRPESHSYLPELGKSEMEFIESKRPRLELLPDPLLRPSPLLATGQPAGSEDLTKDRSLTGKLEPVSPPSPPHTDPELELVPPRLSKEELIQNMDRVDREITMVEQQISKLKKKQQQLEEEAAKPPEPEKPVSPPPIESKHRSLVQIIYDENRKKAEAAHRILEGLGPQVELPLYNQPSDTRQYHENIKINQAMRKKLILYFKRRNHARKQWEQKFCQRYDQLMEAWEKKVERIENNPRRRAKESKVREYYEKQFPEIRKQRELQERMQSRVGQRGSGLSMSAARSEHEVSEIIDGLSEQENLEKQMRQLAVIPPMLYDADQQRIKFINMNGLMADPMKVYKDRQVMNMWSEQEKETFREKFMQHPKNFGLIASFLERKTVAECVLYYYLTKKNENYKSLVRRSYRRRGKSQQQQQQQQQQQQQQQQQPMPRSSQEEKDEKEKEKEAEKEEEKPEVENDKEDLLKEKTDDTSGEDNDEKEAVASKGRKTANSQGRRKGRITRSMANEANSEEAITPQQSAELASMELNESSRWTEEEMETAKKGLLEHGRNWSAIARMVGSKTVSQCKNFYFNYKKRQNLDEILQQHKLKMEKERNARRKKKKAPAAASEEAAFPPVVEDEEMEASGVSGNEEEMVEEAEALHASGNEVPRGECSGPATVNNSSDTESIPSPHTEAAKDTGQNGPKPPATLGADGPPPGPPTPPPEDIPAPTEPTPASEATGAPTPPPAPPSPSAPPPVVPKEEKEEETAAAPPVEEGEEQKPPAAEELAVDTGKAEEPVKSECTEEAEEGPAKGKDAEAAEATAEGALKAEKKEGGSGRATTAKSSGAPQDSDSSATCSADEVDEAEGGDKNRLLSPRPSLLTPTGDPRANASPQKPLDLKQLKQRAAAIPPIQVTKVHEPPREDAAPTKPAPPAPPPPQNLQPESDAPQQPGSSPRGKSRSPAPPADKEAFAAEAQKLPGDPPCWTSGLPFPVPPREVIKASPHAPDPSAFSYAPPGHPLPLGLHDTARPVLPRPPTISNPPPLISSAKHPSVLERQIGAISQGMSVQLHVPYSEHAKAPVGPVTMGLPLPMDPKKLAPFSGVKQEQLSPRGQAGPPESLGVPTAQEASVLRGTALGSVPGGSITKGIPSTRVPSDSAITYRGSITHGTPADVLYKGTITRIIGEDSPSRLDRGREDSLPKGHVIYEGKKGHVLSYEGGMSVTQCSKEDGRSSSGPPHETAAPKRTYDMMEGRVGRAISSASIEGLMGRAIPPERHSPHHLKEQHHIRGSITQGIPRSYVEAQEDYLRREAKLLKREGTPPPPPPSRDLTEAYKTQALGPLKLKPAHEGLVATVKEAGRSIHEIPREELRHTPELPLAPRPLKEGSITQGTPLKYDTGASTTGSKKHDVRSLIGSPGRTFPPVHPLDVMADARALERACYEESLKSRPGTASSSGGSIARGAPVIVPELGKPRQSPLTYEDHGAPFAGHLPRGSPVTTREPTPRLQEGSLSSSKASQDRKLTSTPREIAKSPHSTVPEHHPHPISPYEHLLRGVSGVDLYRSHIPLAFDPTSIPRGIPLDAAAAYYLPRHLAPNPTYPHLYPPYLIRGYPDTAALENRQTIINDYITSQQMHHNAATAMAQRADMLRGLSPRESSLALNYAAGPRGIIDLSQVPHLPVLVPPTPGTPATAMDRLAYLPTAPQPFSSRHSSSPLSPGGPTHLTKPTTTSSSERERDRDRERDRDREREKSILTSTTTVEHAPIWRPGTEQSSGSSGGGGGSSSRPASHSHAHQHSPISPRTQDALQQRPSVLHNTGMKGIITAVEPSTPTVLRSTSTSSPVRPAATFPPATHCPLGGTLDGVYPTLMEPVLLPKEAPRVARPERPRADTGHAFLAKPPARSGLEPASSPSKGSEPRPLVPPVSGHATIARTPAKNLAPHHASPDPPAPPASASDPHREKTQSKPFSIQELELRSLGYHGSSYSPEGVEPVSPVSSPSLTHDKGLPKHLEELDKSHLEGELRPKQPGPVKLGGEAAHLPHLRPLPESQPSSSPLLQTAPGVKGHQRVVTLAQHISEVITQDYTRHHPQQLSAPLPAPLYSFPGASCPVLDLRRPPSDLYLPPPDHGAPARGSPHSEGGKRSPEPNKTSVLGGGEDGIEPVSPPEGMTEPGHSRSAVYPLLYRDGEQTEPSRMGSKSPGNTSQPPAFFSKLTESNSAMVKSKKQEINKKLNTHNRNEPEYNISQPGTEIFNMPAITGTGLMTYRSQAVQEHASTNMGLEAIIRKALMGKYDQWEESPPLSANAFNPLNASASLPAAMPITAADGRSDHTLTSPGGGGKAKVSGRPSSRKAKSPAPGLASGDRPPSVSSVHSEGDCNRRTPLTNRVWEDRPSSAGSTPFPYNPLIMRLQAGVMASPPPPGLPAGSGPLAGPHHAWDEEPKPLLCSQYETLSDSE
compound,measurement,setting,value
"CCC(CCCC(=O)Nc1ccccc1)CCC(=O)NO (racemic) [Compound 1b, 4-ethyl-N^1-hydroxy-N^8-phenyloctanediamide]",IC50,HDAC1; IC50 values (nM) HDAC1,4400 nM
same,IC50,HDAC1; [2],4400 to 6000 nM
same,activity at 1 µM,HDAC1; [3],81 ± 3%
same,activity at 2 µM,HDAC1; [3],68 ± 5%
same,activity at 4 µM,HDAC1; [3],58 ± 1%
same,activity at 8 µM,HDAC1; [3],32 ± 4%
same,activity at 16 µM,HDAC1; [3],19 ± 1%
same,IC50,HDAC2,4.9 µM
same,activity at 1 µM,HDAC2; [4],86 ± 2%
same,activity at 2 µM,HDAC2; [4],69 ± 1%
same,activity at 4 µM,HDAC2; [4],59 ± 2%
same,activity at 8 µM,HDAC2; [4],34 ± 7%
same,activity at 16 µM,HDAC2; [4],23 ± 2%
same,IC50,HDAC3,6 µM
same,activity at 1 µM,HDAC3; [5],83 ± 7%
same,activity at 2 µM,HDAC3; [5],71 ± 4%
same,activity at 4 µM,HDAC3; [5],64 ± 2%
same,activity at 8 µM,HDAC3; [5],52 ± 6%
same,activity at 16 µM,HDAC3; [5],17 ± 8%
same,IC50,recombinant HDAC8,130 ± 3 nM
same,activity at 0.1 µM,recombinant HDAC8; [6],55 ± 2%
same,activity at 0.2 µM,recombinant HDAC8; [6],39 ± 1%
same,activity at […],recombinant HDAC8; [6],83 ± 2%
same,activity at 0.4 µM,"recombinant HDAC8; 4.0 × 10^−7 M, read-out: Deacetylase activity (%) HDAC8",25 ± 1%
same,activity at 0.05 µM,recombinant HDAC8; [6],73 ± 2%
same,HDAC8 fold selectivity HDAC1,recombinant HDAC8,34 fold
same,HDAC8 fold selectivity HDAC2,recombinant HDAC8,38 fold
same,HDAC8 fold selectivity HDAC3,recombinant HDAC8,46 fold
same,Deacetylase activity (%),[1]; 2.4 × 10^−5 M,31 ± 2%
same,Deacetylase activity (%),[1]; 3.0 × 10^−6 M,92 ± 1%
same,Deacetylase activity (%),[1]; 4.8 × 10^−5 M,12 ± 1%
same,Deacetylase activity (%),[1]; 6.0 × 10^−6 M,82 ± 7%
same,IC50,[1],14 ± 1 µM
same,Deacetylase activity (%),[1]; […] 10^−5 M,53 ± 3%
"CCCCCCC(CCCC(=O)Nc1ccccc1)CCC(=O)NO (racemic) [Compound 1d, 4-hexyl-N^1-hydroxy-N^8-phenyloctanediamide]",IC50,HDAC1; IC50 values (nM) HDAC1,35000 nM
same,IC50,HDAC1; [2],30000 to 38000 nM
same,activity at 1.25 µM,HDAC1; [3],97 ± 3%
same,activity at 10 µM,HDAC1; [3],83 ± 4%
same,activity at 20 µM,HDAC1; [3],67 ± 4%
same,activity at 40 µM,HDAC1; [3],46 ± 1%
same,activity at 80 µM,HDAC1; [3],26 ± 2%
same,activity at 160 µM,HDAC1; [3],13 ± 1%
same,IC50,HDAC2,38 µM
same,activity at 1.25 µM,HDAC2; [4],101 ± 2%
same,activity at 10 µM,HDAC2; [4],79 ± 6%
same,activity at 20 µM,HDAC2; [4],73 ± 2%
same,activity at 40 µM,HDAC2; [4],46 ± 6%
same,activity at 80 µM,HDAC2; [4],31 ± 2%
same,activity at 160 µM,HDAC2; [4],16 ± 1%
same,IC50,HDAC3,30 µM
same,activity at 1.25 µM,HDAC3; [5],100 ± 6%
same,activity at 10 µM,HDAC3; [5],88 ± 2%
same,activity at 20 µM,HDAC3; [5],56 ± 4%
same,activity at 40 µM,HDAC3; [5],42 ± 5%
same,activity at 80 µM,HDAC3; [5],25 ± 1%
same,activity at 160 µM,HDAC3; [5],5 ± 3%
same,IC50,recombinant HDAC8,79 ± 3 nM
same,activity at 0.1 µM,recombinant HDAC8; [6],42 ± 4%
same,activity at 0.0125 µM,"recombinant HDAC8; 1.25 × 10^−8 M, read-out: Deacetylase activity (%) HDAC8",92 ± 1%
same,activity at 0.2 µM,recombinant HDAC8; [6],27 ± 2%
same,activity at […],recombinant HDAC8; [6],78 ± 6%
same,activity at 0.05 µM,recombinant HDAC8; [6],63 ± 4%
same,HDAC8 fold selectivity HDAC1,recombinant HDAC8,440 fold
same,HDAC8 fold selectivity HDAC2,recombinant HDAC8,480 fold
same,HDAC8 fold selectivity HDAC3,recombinant HDAC8,380 fold
same,"fold selectivity for HDAC8 over HDAC1, 2, and 3","recombinant HDAC8; HDAC8 versus HDAC1, 2, 3",≥ 380 fold
same,Deacetylase activity (%),[1]; 1.0 × 10^−4 M,35 ± 3%
same,Deacetylase activity (%),[1]; 1.25 × 10^−5 M,87 ± 1%
same,Deacetylase activity (%),[1]; 2.0 × 10^−4 M,21 ± 3%
same,Deacetylase activity (%),[1]; 5.0 × 10^−5 M,56 ± 2%
same,IC50,[1],60 ± 1 µM
same,Deacetylase activity (%),[1]; […] 10^−5 M,73 ± 2%
